Measurements taken from PMC6240685, “Strong Inhibitory Effect, Low Cytotoxicity and High Plasma Stability of Steroidal Inhibitors of N-Methyl-D-Aspartate Receptors With C-3 Amide Structural Motif” (Frontiers in Pharmacology, 2018).

Target: T1, GluN1/GluN2D receptors (Rattus norvegicus, UniProt P35439+Q62645)
T1 construct: expressed in transfected cells; host or cells: HEK293
Test: Patch-clamp inhibition of GluN1/GluN2D receptors in transfected HEK293 cells
Assay type: cell-based
Details: 1 mM glutamate and 10 μM glycine
Method: FIGURE 7 Concentration–response properties of compound 6 on GluN1/GluN2A-D receptors. (A) Examples of traces obtained from HEK293 cells transfected with cDNAs encoding GluN1/GluN2A, GluN1/GluN2B, GluN1/GluN2C, and GluN1/GluN2D receptors. Agonists (1 mM glutamate and 10 μM glycine) were applied alone and simultaneously with compound 6 (10 μM) to evaluate the inhibitory effect of compound 6 on NMDAR mediated currents (duration of glutamate and steroid application is indicated by filled and open bars, respectively). (B) Concentration–response curves for the compound 6 effect at GluN1/GluN2A-D receptors. Data points are averaged values of normalized responses from at least four HEK293 cells. Error bars represent SD.
Electrophysiological experiments were performed on HEK293 cells transfected with plasmids encoding rat GluN1-1a/GluN2A-D and GFP genes as described previously, ([Petrovic et al., 2005]; [Cais et al., 2008]; [Korinek et al., 2010]) or on primary hippocampal neurons prepared from P0–P1 rats, plated on collagen/poly-D-lysine-coated glass coverslips at a density of ∼50,000 cells/cm^2, and grown in Neurobasal A medium with B27 Supplement (Gibco). Agonist-induced responses were voltage-clamped at a holding potential of −60 mV. […] Agonist-induced responses were low-pass filtered at 2 kHz, digitally sampled at 5 kHz, and analyzed with pClamp software version 10.5 (Molecular Devices). […]

T1 sequence (Q62645 28-1323, other chains not shown): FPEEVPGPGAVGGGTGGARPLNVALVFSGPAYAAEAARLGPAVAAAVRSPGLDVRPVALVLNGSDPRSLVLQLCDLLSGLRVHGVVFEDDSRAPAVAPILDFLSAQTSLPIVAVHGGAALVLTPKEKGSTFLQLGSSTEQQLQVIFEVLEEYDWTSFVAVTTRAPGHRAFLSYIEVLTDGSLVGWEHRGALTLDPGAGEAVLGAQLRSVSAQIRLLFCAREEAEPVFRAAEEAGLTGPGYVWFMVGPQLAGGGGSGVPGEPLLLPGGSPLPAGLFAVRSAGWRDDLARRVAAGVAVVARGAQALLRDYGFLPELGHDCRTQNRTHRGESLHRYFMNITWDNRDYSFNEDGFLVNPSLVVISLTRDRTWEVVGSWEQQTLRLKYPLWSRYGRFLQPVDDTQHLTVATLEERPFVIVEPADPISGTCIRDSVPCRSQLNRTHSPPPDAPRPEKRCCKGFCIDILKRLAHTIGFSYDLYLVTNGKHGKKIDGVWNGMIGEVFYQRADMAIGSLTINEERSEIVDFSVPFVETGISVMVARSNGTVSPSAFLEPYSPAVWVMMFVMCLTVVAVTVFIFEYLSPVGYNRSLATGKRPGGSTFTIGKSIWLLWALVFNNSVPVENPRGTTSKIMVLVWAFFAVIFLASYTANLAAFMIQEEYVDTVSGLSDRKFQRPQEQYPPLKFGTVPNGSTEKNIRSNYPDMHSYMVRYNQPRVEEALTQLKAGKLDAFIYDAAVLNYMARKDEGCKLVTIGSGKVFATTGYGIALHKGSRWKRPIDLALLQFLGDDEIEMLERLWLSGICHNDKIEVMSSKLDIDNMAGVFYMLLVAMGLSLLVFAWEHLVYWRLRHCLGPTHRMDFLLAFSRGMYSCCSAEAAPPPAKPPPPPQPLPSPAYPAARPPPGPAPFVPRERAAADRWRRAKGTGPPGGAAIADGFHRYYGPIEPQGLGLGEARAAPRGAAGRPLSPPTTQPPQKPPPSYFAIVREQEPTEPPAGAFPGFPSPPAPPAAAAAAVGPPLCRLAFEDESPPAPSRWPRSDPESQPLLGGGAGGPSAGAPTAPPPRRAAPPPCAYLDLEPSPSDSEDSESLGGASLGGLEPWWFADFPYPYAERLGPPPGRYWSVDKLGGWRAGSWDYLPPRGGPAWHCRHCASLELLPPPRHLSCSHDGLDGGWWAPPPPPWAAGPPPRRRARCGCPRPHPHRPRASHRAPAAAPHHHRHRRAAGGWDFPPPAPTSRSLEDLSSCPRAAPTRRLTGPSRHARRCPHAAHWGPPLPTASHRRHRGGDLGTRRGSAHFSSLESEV

C[C@@]12CCC[C@H]1[C@@H]1CC[C@@H]3C[C@H](NC(=O)[C@@H](N)CC(=O)O)CC[C@]3(C)[C@H]1CC2 [Compound 6, (S)-3-amino-4-(((3R,5R,8S,9S,10S,13S,14S)-10,13-dimethylhexadecahydro-1H-cyclopenta[a]phenanthren-3-yl)amino)-4-oxobutanoic acid]
h ± SD (apparent Hill coefficient): 1.6 ± 0.3 | IC50 (concentration-response): 8.4 ± 1 µM
